Test results reported in ChEMBL document CHEMBL4622874, “Discovery of ORN0829, a potent dual orexin 1/2 receptor antagonist for the treatment of insomnia” (Bioorg Med Chem, 2020).

Assays:
[1] = Lipophilicity, log D of the compound at pH 7.4 by HPLC analysis; assay type: physicochemical; settings: buffer
[2] = molecular target: T1, Orexin/Hypocretin receptor type 1 (Homo sapiens, UniProt O43613); test: Antagonist activity at human recombinant OX1R expressed in CHOK1 cells assessed as inhibition of orexin A-induced intracellular Ca2+ release preincubated for 30 mins followed by orexin-A stimulation by Fluo4-AM dye based fluorescence analysis; assay type: functional, cell-based, CHO-K1
T1 sequence (O43613 whole entry): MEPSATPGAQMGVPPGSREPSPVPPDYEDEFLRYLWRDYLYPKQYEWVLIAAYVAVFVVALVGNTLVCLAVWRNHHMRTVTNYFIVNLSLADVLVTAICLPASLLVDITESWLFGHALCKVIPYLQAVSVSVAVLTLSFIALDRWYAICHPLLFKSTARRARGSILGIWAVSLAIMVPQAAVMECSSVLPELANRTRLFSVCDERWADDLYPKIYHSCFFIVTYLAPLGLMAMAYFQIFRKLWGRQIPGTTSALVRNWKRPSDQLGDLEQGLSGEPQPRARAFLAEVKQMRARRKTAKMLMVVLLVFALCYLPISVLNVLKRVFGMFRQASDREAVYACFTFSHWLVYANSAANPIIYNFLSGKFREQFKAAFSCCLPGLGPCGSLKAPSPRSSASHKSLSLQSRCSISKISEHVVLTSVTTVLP

Orexin receptor type 2 = molecular target: T2, Orexin receptor type 2 (Homo sapiens, UniProt O43614); test: Antagonist activity at human recombinant OX2R expressed in CHOK1 cells assessed as inhibition of orexin A-induced intracellular Ca2+ release preincubated for 30 mins followed by orexin-A stimulation by Fluo-4AM dye based fluorescence analysis; assay type: functional, cell-based, CHO-K1
T2 sequence (O43614 whole entry): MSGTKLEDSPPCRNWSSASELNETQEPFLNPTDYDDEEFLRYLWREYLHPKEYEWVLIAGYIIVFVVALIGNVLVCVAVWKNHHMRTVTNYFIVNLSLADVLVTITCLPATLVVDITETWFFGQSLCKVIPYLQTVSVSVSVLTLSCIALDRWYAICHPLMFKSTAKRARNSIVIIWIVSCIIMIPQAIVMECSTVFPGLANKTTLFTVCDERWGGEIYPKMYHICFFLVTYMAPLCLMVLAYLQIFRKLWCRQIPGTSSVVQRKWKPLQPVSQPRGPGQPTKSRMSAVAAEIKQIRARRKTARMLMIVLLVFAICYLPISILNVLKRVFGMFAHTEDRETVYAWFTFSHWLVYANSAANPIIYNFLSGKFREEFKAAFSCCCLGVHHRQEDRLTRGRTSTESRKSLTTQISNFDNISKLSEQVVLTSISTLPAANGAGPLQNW

[3] = Drug metabolism in human liver microsomes incubated for 15 mins; assay type: ADME, Microsome; settings: read-out: Drug metabolism
P-gp (ABCB1) = P-gp (ABCB1) (Homo sapiens, UniProt P08183); test: Substrate activity at P-gp (unknown origin) assessed as efflux ratio; assay type: ADME; settings: not told
Chain of P-gp (ABCB1) (P08183 whole entry): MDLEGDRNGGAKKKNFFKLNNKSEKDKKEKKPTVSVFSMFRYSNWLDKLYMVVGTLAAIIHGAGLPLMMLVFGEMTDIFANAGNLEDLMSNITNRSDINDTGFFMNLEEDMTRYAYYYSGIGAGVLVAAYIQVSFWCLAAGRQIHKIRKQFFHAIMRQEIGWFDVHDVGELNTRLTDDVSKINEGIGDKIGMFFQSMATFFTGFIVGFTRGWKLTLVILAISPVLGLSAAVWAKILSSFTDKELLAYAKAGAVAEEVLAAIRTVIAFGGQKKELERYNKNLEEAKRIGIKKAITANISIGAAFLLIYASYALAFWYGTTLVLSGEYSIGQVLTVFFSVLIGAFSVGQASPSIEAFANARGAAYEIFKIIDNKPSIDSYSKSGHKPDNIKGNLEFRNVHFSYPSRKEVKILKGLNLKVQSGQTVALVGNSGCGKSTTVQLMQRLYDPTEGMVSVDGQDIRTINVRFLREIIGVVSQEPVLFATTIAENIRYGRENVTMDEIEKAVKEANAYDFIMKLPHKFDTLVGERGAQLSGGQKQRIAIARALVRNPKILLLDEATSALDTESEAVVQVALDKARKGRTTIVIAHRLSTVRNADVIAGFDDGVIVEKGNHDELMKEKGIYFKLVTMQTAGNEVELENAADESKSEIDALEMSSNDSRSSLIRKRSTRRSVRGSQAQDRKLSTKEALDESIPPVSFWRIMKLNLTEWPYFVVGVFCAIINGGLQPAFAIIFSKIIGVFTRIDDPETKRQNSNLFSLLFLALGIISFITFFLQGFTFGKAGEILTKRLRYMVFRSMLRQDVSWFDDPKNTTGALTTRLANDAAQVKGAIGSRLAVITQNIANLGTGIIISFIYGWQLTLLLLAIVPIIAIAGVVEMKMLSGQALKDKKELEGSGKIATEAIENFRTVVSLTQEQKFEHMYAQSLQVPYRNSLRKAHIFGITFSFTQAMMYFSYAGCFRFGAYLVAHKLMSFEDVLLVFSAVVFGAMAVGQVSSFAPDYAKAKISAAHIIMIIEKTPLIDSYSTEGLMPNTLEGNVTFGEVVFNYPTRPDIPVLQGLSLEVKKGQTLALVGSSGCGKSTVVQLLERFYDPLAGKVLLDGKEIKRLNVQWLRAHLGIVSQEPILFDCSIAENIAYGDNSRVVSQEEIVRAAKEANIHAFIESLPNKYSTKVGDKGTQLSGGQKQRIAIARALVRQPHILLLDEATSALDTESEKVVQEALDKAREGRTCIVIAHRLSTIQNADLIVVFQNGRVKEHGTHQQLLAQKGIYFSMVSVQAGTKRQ

Question: For `Cc1ccc(-n2nccn2)c(C(=O)N2CCCC[C@@H]2Cn2ccc(-c3ccc(F)cn3)n2)c1`, which logD [1] is on record?
Answer: 2.95

Question: What about the IC50 [2] of the same molecule?
Answer: 20.8 nM

Question: And the IC50 (Orexin receptor type 2)?
Answer: 52.4 nM

Question: With `Cc1ccc(-n2nccn2)c(C(=O)N2CCC[C@H]2Cn2ccc(-c3ccc(F)cn3)n2)c1` as the molecule, how does the logD [1] read?
Answer: 3.08

Question: And the IC50 [2]?
Answer: 3.3 nM

Question: And the metabolised at 0.25 h [3]?
Answer: 37.2%

Question: And the efflux ratio (P-gp (ABCB1))?
Answer: 1.96

Question: And the IC50 (Orexin receptor type 2)?
Answer: 3.15 nM

Question: For `Cc1ccc(-n2nccn2)c(C(=O)N2CCO[C@@H]2Cn2ccc(-c3ccc(F)cn3)n2)c1`, which logD [1] is on record?
Answer: 2.68

Question: What about the IC50 [2] of the same molecule?
Answer: 2690 nM

Question: For `Cc1ccc(-n2nccn2)c(C(=O)N2CCO[C@H]2Cn2ccc(-c3ccc(F)cn3)n2)c1`, which logD [1] is on record?
Answer: 2.67

Question: And the IC50 [2]?
Answer: 8.08 nM

Question: What about the metabolised at 0.25 h [3] of the same molecule?
Answer: 15.7%

Question: What does the source list for `Cc1ccc(-n2nccn2)c(C(=O)N2CCCO[C@H]2Cn2cc(-c3ccc(F)cn3)cn2)c1`?
Answer: logD [1]: 2.38; IC50 [2]: 5.39 nM; metabolised at 0.25 h [3]: 15.8%

Question: For `Cc1ccc(-n2nccn2)c(C(=O)N2CCCO[C@H]2Cn2ncn(-c3ccc(F)cn3)c2=O)c1`, which logD [1] is on record?
Answer: 2.52

Question: And the IC50 [2]?
Answer: 85.5 nM

Question: And the metabolised at 0.25 h [3]?
Answer: 15.6%

Question: And the efflux ratio (P-gp (ABCB1))?
Answer: 2.88

Question: What about the IC50 (Orexin receptor type 2) of the same molecule?
Answer: 5.4 nM

Question: For `Cc1ccc(-n2nccn2)c(C(=O)N2CCCO[C@H]2Cc2noc(-c3ccc(F)cn3)n2)c1`, which logD [1] is on record?
Answer: 2.53

Question: And the IC50 [2]?
Answer: 4.54 nM

Question: And the metabolised at 0.25 h [3]?
Answer: 19.5%

Question: What about the efflux ratio (P-gp (ABCB1)) of the same molecule?
Answer: 3.06

Question: And the IC50 (Orexin receptor type 2)?
Answer: 3.6 nM

Question: Which results are given for `Cc1ccc(-n2nccn2)c(C(=O)N2CCCC[C@H]2Cn2ccc(-c3ccc(F)cn3)n2)c1`?
Answer: logD [1]: 2.96; IC50 [2]: 2.27 nM; metabolised at 0.25 h [3]: 51.9%; efflux ratio (P-gp (ABCB1)): 1.63; IC50 (Orexin receptor type 2): 1.64 nM

Question: What does the source list for `O=C(c1ccccc1-n1nccn1)N1CCCO[C@H]1Cn1ccc(-c2ccc(F)cn2)n1`?
Answer: logD [1]: 2.3; IC50 [2]: 3.76 nM; metabolised at 0.25 h [3]: 14.6%; efflux ratio (P-gp (ABCB1)): 3.25; IC50 (Orexin receptor type 2): 2.62 nM

Question: For `Cc1ccc(-n2nccn2)c(C(=O)N2CCS[C@H]2Cn2ccc(-c3ccc(F)cn3)n2)c1`, which logD [1] is on record?
Answer: 3.51

Question: And the IC50 [2]?
Answer: 61.1 nM

Question: What about the metabolised at 0.25 h [3] of the same molecule?
Answer: 53%

Question: And the efflux ratio (P-gp (ABCB1))?
Answer: 1.34

Question: What about the IC50 (Orexin receptor type 2) of the same molecule?
Answer: 2300 nM

Question: Which logD [1] does the source give for `O=C(c1cc(F)ccc1-c1ncccn1)N1CCCO[C@H]1Cn1ccc(-c2ccc(F)cn2)n1` here?
Answer: 2.3

Question: And the IC50 [2]?
Answer: 3.22 nM

Question: And the metabolised at 0.25 h [3]?
Answer: 28.9%

Question: And the efflux ratio (P-gp (ABCB1))?
Answer: 5.36

Question: And the IC50 (Orexin receptor type 2)?
Answer: 4.58 nM

Question: Which logD [1] does the source give for `O=C(c1cc(F)ccc1-n1nccn1)N1CCCO[C@H]1Cn1ccc(-c2ccc(F)cn2)n1` here?
Answer: 2.46

Question: What about the IC50 [2] of the same molecule?
Answer: 3.95 nM

Question: And the metabolised at 0.25 h [3]?
Answer: 43.2%

Question: What about the efflux ratio (P-gp (ABCB1)) of the same molecule?
Answer: 2.64

Question: What about the IC50 (Orexin receptor type 2) of the same molecule?
Answer: 1.96 nM

Question: Which logD [1] does the source give for `Cc1ccc(-n2nccn2)c(C(=O)N2CCCO[C@H]2Cn2cc(-c3ccc(F)cn3)nn2)c1` here?
Answer: 2.38

Question: And the IC50 [2]?
Answer: 12.1 nM

Question: And the metabolised at 0.25 h [3]?
Answer: 4.3%

Question: And the efflux ratio (P-gp (ABCB1))?
Answer: 4.97

Question: And the IC50 (Orexin receptor type 2)?
Answer: 3.07 nM

Question: For `Cc1ccc(-n2nccn2)c(C(=O)N2CCOC[C@H]2Cn2ccc(-c3ccc(F)cn3)n2)c1`, which logD [1] is on record?
Answer: 2.33

Question: And the IC50 [2]?
Answer: 3.5 nM

Question: And the metabolised at 0.25 h [3]?
Answer: 24.5%

Question: What about the efflux ratio (P-gp (ABCB1)) of the same molecule?
Answer: 3.56

Question: What about the IC50 (Orexin receptor type 2) of the same molecule?
Answer: 15 nM

Question: What does the source list for `Cc1ccc(-n2nccn2)c(C(=O)N2COC[C@H]2Cn2ccc(-c3ccc(F)cn3)n2)c1`?
Answer: logD [1]: 2.52; IC50 [2]: 149 nM; metabolised at 0.25 h [3]: 18%; efflux ratio (P-gp (ABCB1)): 1.65; IC50 (Orexin receptor type 2): 133 nM

Question: What does the source list for `CCN(CCn1ccc(-c2ccc(F)cn2)n1)C(=O)c1cc(C)ccc1-n1nccn1`?
Answer: logD [1]: 2.78; metabolised at 0.25 h [3]: 20.2%; efflux ratio (P-gp (ABCB1)): 1.51

Question: For `Cc1ccc(-n2nccn2)c(C(=O)N2CCCO[C@H]2Cc2cnn(-c3ccc(F)cn3)c2)c1`, which logD [1] is on record?
Answer: 3.03

Question: And the IC50 [2]?
Answer: 3.98 nM

Question: What about the metabolised at 0.25 h [3] of the same molecule?
Answer: 29.7%

Question: For `Cc1ccc(-n2nccn2)c(C(=O)N2CSC[C@H]2Cn2ccc(-c3ccc(F)cn3)n2)c1`, which logD [1] is on record?
Answer: 3.08

Question: And the IC50 [2]?
Answer: 4.6 nM

Question: And the metabolised at 0.25 h [3]?
Answer: 73.7%

Question: And the efflux ratio (P-gp (ABCB1))?
Answer: 1.13

Question: And the IC50 (Orexin receptor type 2)?
Answer: 13.1 nM

Question: For `Cc1ccc(-n2nccn2)c(C(=O)N2CCC[C@@H]2Cn2ccc(-c3ccc(F)cn3)n2)c1`, which logD [1] is on record?
Answer: 3.06

Question: What about the IC50 [2] of the same molecule?
Answer: 363 nM

Question: What about the IC50 (Orexin receptor type 2) of the same molecule?
Answer: 313 nM

Question: With `Cc1ccc(-n2nccn2)c(C(=O)N2CCCO[C@@H]2Cn2ccc(-c3ccc(F)cn3)n2)c1` as the molecule, how does the logD [1] read?
Answer: 2.56

Question: And the IC50 [2]?
Answer: 344 nM

Question: What about the IC50 (Orexin receptor type 2) of the same molecule?
Answer: 274 nM
